The source of these data is patent publication US7205382B2, “Peptides, the production and use thereof for binding immunoglobulins” (Fresenius Medical Care Affina GmbH, priority 2000, dated 2007).

Bridge positions count the residues as written; N and C are the ends. Square brackets hold non-standard residues; d marks the D form. Ends that are not written are not given here. cellulose = not defined here; βAla = NCCC(=O)O

Common to all, as to assay type: binding
Common to all, as to set-up: key: No binding of immunoglobulin for the defined peptide variant, detection negative: 0; Binding of immunoglobulin for the defined peptide variant, detection positive: +

Experiment [1] relates to immunoglobulins in human plasma. Kind of experiment: Cellulose-immobilized 13-mer peptide variants incubated with human plasma, anti-human IgG-AP detection. The note with it: human plasma as sample, diluted 1:10,000 in blocking buffer, 3 h room temperature. The protocol: (§1) Peptides consisting of 13 amino acids were synthesized by solid phase synthesis (Houghten, 1985) on a cellulose matrix with (βA)(βA) as a spacer group.
(§2) The immobilized peptides were tested for their immunoglobulin binding capability by incubation with human IgG-Fc in a buffered solution and by incubation with human plasma.
(§3) Thus, the peptide variants immobilized on solid phases were washed with T-TBS buffer (136 mM NaCl, 1.6 mM KCl, 0.05% (v/v) Tween 20, 50 mM Tris-HCl, pH 8.0) and subsequently treated with blocking buffers (5% (w/v) saccharose, 4% (w/v) bovine serum albumin in T-TBS). Incubation of the immobilized peptides with IgG-Fc (1 μg/ml) in blocking buffer and human serum (diluted 1:10,000 in blocking buffer) was effected for 3 h at room temperature. For checking the specificity of the binding, buffered serum albumin solution (blocking buffer) without addition was included as a control. Thereafter, the peptide variants immobilized on the solid phases were washed three more times with T-TBS buffer.
(§4) After incubation with alkaline phosphatase-conjugated anti-human IgG antibody (1.2 μg/ml) in blocking buffer, detection of the immunoglobulin binding was effected by means of NBT (nitroblue tetrazolium chloride)/BCIP (5-bromo-4-chloro-3-indolyl phosphate toluidine salt) as a substrate (200 μl of parent solution (18.75 mg/ml NBT and 9.4 mg/ml BCIP in 67% (v/v) DMSO) in 10 ml developing buffer (100 mM Tris-HCl, 100 mM NaCl, 5 mM MgCl2, pH 9.5)).

Experiment [2] has as its system serum albumin. As to the kind of experiment: Cellulose-immobilized 13-mer peptide variants incubated with serum albumin (negative control), anti-human IgG-AP detection. The conditions noted are these: blocking buffer without addition, 3 h room temperature. The protocol: as §1, §2, §3, §4
The test system of experiment [3] is human IgG-Fc. Kind of experiment: Cellulose-immobilized 13-mer peptide variants incubated with human IgG-Fc, anti-human IgG-AP detection. The conditions noted are these: IgG-Fc 1 μg/ml in blocking buffer, 3 h room temperature. Here is the method: as §1, §2, §3, §4

For the substance “06S: cellulose-bound 13-mer variant DCAWHSGELVWCT-(βA)(βA) (DCAWHSGELVWCT-{βAla-βAla-cellulose}; disulfide 2-12 (inferred); not fully specified (N-terminus); printed as DCAWHSGELVWCT-(βA)(βA); reading uncertain)”, in experiment [1], the “Result for incubation with human plasma (immunoglobulin binding detection)” value (shortened to “Result for incubation with human plasma”) is recorded as 0. Besides, the “Result for incubation with serum albumin (immunoglobulin binding detection)” value (shortened to “Result for incubation with serum albumin”) in experiment [2] is 0. Further, the “Result for incubation with human IgG-Fc (immunoglobulin binding detection)” value (“Result for incubation with human IgG-Fc” below) in experiment [3] was “+”.

As to “02E: cellulose-bound 13-mer variant DEAWHLGELVWCT-(βA)(βA) (DEAWHLGELVWCT[βAla][βAla]; not fully specified; printed as DEAWHLGELVWCT-(βA)(βA); also: cellulose-bound)”, the “Result for incubation with human plasma” value in experiment [1] amounted to 0. The “Result for incubation with serum albumin” value in experiment [2] is 0. For the same substance, in experiment [3], the “Result for incubation with human IgG-Fc” value amounted to 0.

As for “11Y: cellulose-bound 13-mer variant DCAWHLGELVYCT-(βA)(βA)”, the “Result for incubation with human plasma” value in experiment [1] is recorded as 0. In addition, in experiment [2], the “Result for incubation with serum albumin” value is listed as 0. In addition, in experiment [3], the “Result for incubation with human IgG-Fc” value is on record as 0.

As to “10A: cellulose-bound 13-mer variant DCAWHLGELAWCT-(βA)(βA) (DCAWHLGELAWCT-{βAla-βAla-cellulose}; disulfide 2-12 (inferred); reading uncertain; also: printed as DCAWHLGELAWCT-(βA)(βA))”, the “Result for incubation with human plasma” value in experiment [1] is reported as 0. For the same substance, the “Result for incubation with serum albumin” value in experiment [2] is reported as 0. Moreover, the “Result for incubation with human IgG-Fc” value in experiment [3] amounted to 0.

For “08K: cellulose-bound 13-mer variant DCAWHLGKLVWCT-(βA)(βA) (DCAWHLGKLVWCT-{βAla-βAla-cellulose}; disulfide 2-12 (inferred); not fully specified (N-terminus); printed as DCAWHLGKLVWCT-(βA)(βA); reading uncertain)”, the “Result for incubation with human plasma” value in experiment [1] is listed as “+”. Moreover, the “Result for incubation with serum albumin” value in experiment [2] came to 0. Further, in experiment [3], the “Result for incubation with human IgG-Fc” value is listed as “+”.

As to “04D: cellulose-bound 13-mer variant DCADHLGELVWCT-(βA)(βA) (DCADHLGELVWCT-{βAla-βAla-cellulose}; disulfide 2-12 (inferred); reading uncertain; also: printed as DCADHLGELVWCT-(βA)(βA))”, the “Result for incubation with human plasma” value in experiment [1] worked out at 0. Also, the “Result for incubation with serum albumin” value in experiment [2] was found to be 0. For the same substance, the “Result for incubation with human IgG-Fc” value in experiment [3] is on record as 0.

With “07A: cellulose-bound 13-mer variant DCAWHLAELVWCT-(βA)(βA) (DCAWHLAELVWCT-{βAla-βAla-cellulose}; disulfide 2-12 (inferred); not fully specified (N-terminus); printed as DCAWHLAELVWCT-(βA)(βA); reading uncertain)”, in experiment [1], the “Result for incubation with human plasma” value was determined as 0. In experiment [2], the “Result for incubation with serum albumin” value was determined as 0. Besides, the “Result for incubation with human IgG-Fc” value in experiment [3] was 0.

Regarding “11D: cellulose-bound 13-mer variant DCAWHLGELVDCT-(βA)(βA) (DCAWHLGELVDCT-{βAla-βAla-cellulose}; disulfide 2-12 (inferred); reading uncertain; also: printed as DCAWHLGELVDCT-(βA)(βA))”, in experiment [1], the “Result for incubation with human plasma” value is 0. Moreover, in experiment [2], the “Result for incubation with serum albumin” value was 0. Besides, in experiment [3], the “Result for incubation with human IgG-Fc” value worked out at 0.

As for “03M: cellulose-bound 13-mer variant DCMWHLGELVWCT-(βA)(βA) (DCMWHLGELVWCT-{βAla-βAla-cellulose}; disulfide 2-12 (inferred); reading uncertain; also: printed as DCMWHLGELVWCT-(βA)(βA))”, the “Result for incubation with human plasma” value in experiment [1] turned out to be 0. In addition, the “Result for incubation with serum albumin” value in experiment [2] came out at 0. Also, in experiment [3], the “Result for incubation with human IgG-Fc” value was 0.

As for “07K: cellulose-bound 13-mer variant DCAWHLKELVWCT-(βA)(βA) (DCAWHLKELVWCT-{βAla-βAla-cellulose}; disulfide 2-12 (inferred); not fully specified (N-terminus); printed as DCAWHLKELVWCT-(βA)(βA); reading uncertain)”, in experiment [1], the “Result for incubation with human plasma” value is 0. Further, the “Result for incubation with serum albumin” value in experiment [2] is given as 0. Further, in experiment [3], the “Result for incubation with human IgG-Fc” value worked out at 0.

As to “03P: cellulose-bound 13-mer variant DCPWHLGELVWCT-(βA)(βA) (DCPWHLGELVWCT-{βAla-βAla-cellulose}; disulfide 2-12 (inferred); reading uncertain; also: printed as DCPWHLGELVWCT-(βA)(βA))”, in experiment [1], the “Result for incubation with human plasma” value is listed as 0. For the same substance, the “Result for incubation with serum albumin” value in experiment [2] stood at 0. The “Result for incubation with human IgG-Fc” value in experiment [3] amounted to 0.

Regarding “01V: cellulose-bound 13-mer variant VCAWHLGELVWCT-(βA)(βA) (VCAWHLGELVWCT-{βAla-βAla-cellulose}; disulfide 2-12 (inferred); reading uncertain; also: printed as VCAWHLGELVWCT-(βA)(βA))”, in experiment [1], the “Result for incubation with human plasma” value is reported as 0. In addition, the “Result for incubation with serum albumin” value in experiment [2] is 0. For the same substance, in experiment [3], the “Result for incubation with human IgG-Fc” value was 0.

Regarding “10H: cellulose-bound 13-mer variant DCAWHLGELHWCT-(βA)(βA) (DCAWHLGELHWCT-{βAla-βAla-cellulose}; disulfide 2-12 (inferred); reading uncertain; also: printed as DCAWHLGELHWCT-(βA)(βA))”, in experiment [1], the “Result for incubation with human plasma” value amounted to 0. In addition, the “Result for incubation with serum albumin” value in experiment [2] worked out at 0. Also, the “Result for incubation with human IgG-Fc” value in experiment [3] turned out to be 0.

As for “10P: cellulose-bound 13-mer variant DCAWHLGELPWCT-(βA)(βA) (DCAWHLGELPWCT-{βAla-βAla-cellulose}; disulfide 2-12 (inferred); reading uncertain; also: printed as DCAWHLGELPWCT-(βA)(βA))”, the “Result for incubation with human plasma” value in experiment [1] amounted to 0. Besides, in experiment [2], the “Result for incubation with serum albumin” value was found to be 0. In addition, the “Result for incubation with human IgG-Fc” value in experiment [3] is reported as 0.

On to “11I: cellulose-bound 13-mer variant DCAWHLGELVICT-(βA)(βA)”, for which, in experiment [1], the “Result for incubation with human plasma” value came to 0. In addition, in experiment [2], the “Result for incubation with serum albumin” value came out at 0. In experiment [3], the “Result for incubation with human IgG-Fc” value is recorded as 0.

Take “07P: cellulose-bound 13-mer variant DCAWHLPELVWCT-(βA)(βA) (DCAWHLPELVWCT-{βAla-βAla-cellulose}; disulfide 2-12 (inferred); not fully specified (N-terminus); printed as DCAWHLPELVWCT-(βA)(βA); reading uncertain)”: the “Result for incubation with human plasma” value in experiment [1] amounted to 0. The “Result for incubation with serum albumin” value in experiment [2] was determined as 0. In addition, the “Result for incubation with human IgG-Fc” value in experiment [3] is recorded as 0.

In the case of “06E: cellulose-bound 13-mer variant DCAWHEGELVWCT-(βA)(βA) (DCAWHEGELVWCT[βAla][βAla]; disulfide 2-12 (inferred); not fully specified (N-terminus); printed as DCAWHEGELVWCT-(βA)(βA); also: cellulose-bound)”, in experiment [1], the “Result for incubation with human plasma” value is 0. For the same substance, the “Result for incubation with serum albumin” value in experiment [2] was determined as 0. For the same substance, in experiment [3], the “Result for incubation with human IgG-Fc” value is reported as “+”.

As to “02L: cellulose-bound 13-mer variant DLAWHLGELVWCT-(βA)(βA) (DLAWHLGELVWCT[βAla][βAla]; not fully specified; printed as DLAWHLGELVWCT-(βA)(βA); also: cellulose-bound)”, the “Result for incubation with human plasma” value in experiment [1] is 0. In addition, the “Result for incubation with serum albumin” value in experiment [2] is recorded as 0. Besides, the “Result for incubation with human IgG-Fc” value in experiment [3] was determined as 0.
